Experiments:
[1] = test system: U87MG (human glioblastoma) tumor; assay: Xenograft tumor efficacy study; assay type: in vivo; conditions: female nude mice; for tumor size versus control and single reference compounds: 15 mg/kg IV on day 0 and day 7, D5W vehicle; for tumor size versus mixture of reference compounds 1 and 2: 15 mg/kg IV on day 0 and day 7, mixture 10 mg/kg/5 mg/kg
Experimental: Female nude mice at 10 weeks of age were inoculated subcutaneously on the flank with 200 μL U87MG (human glioblastoma) tumor cell suspension. U87MG cells were suspended in full growth media and were implanted at 10 million cells per mouse. Mice were staged when tumors reached approximately 200 mm^3 in sizes. Tumor bearing mice at staging (day 0) were randomized into treatment groups (n=10). The conjugates described herein were formulated in D5W vehicle (glucose-water) and were dosed IV on day 0 and day 7. See, Table 6.
The growth of tumors was monitored twice a week for the duration of the experiment. Tumor size was measured using sliding vernier calipers, and the tumor mass was calculated using the formula (length×Width^2)/2.

PI3K = conditions: cited from earlier work
C3H mammary model = conditions: cited from earlier work
tumor xenografts = conditions: animals; cited from earlier work

Molecule: Diallylamine Adduct of 42,17′-linked 41-Desmethoxyrapamycin-Suberate-Wortmannin Conjugate [Example 2a]
- tumor size versus control and single reference compounds [1]: smaller tumors than tumors treated with control or with reference compound 1 or reference compound

Molecule: COCC1OC(=O)c2coc3c2C1(C)C1=C(C3=O)C2CCC(O)C2(C)CC1OC(C)=O (stereo not drawn) [17β-Hydroxywortmannin]
- increase in activity relative to wortmannin (PI3K; PI3K): 10 fold
- IC50 (PI3K): 0.5 nM
- anti-tumor activity (C3H mammary model; dose of 0.5 mg/kg): no inhibition
- toxicity (C3H mammary model; dose of 1.0 mg/kg): toxicity

Molecule: diallylamine adduct of 17-hydroxywortmannin [compound 2]
- tumor size versus mixture of reference compounds 1 and 2 [1]: tumors of comparable size to that achieved with a mixture of reference compounds 1 and 2

Molecule: COC[C@H]1OC(=O)c2coc3c2[C@@]1(C)C1=C(C3=O)[C@@H]2CCC(=O)[C@@]2(C)C[C@H]1OC(C)=O [Wortmannin]
- PI3K inhibition (PI3K): irreversible inhibitor, at nanomolar concentrations
- antitumor activity against tumor xenografts (tumor xenografts): antitumor activity against tumor xenografts in animals

Molecule: COC[C@H]1OC(=O)/C(=C/N(C)CCCN(C)C)C2=C(O)C(=O)C3=C([C@H](OC(C)=O)C[C@@]4(C)C3CC[C@@H]4OC(=O)CCCCCCC(=O)O[C@H]3CC[C@H](C[C@@H](C)[C@@H]4CC(=O)[C@H](C)/C=C(\C)[C@@H](O)[C@@H](OC)C(=O)[C@H](C)C[C@H](C)/C=C/C=C/C=C(\C)[C@@H](OC)C[C@@H]5CC[C@@H](C)[C@@](O)(O5)C(=O)C(=O)N5CCCC[C@H]5C(=O)O4)CC3)[C@]21C (stereo partly shown) [Example 2b, N,N,N′-trimethyl-1,3-propanediamine adduct of 42,17′-linked 41-Desmethoxyrapamycin-Suberate-Wortmannin conjugate]
- tumor size versus control and single reference compounds [1]: smaller tumors than tumors treated with control or with reference compound 1 or reference compound
- tumor size versus mixture of reference compounds 1 and 2 [1]: tumors of comparable size to that achieved with a mixture of reference compounds 1 and 2

— patent US20080249124A1, “WORTMANNIN-RAPALOG CONJUGATE AND USES THEREOF” (Wyeth, priority 2007, published 2008)
